Laboratory results published in patent US6306392A, “Composition comprising a carnitine and glutathione, useful to increase the absorption of glutathione and synergize its effects” (Sigma-Tau Healthscience S.p.A., priority 1999, dated 2001).

Key:
[1] = tested on: acetaminophen-induced mortality; test: Acetaminophen (paracetamol) induced toxicity tests; format: in vivo; settings: mice; for Protection against the mortality induced by acetaminophen (in words): acetaminophen 600 mg/kg
Procedure: Various groups of male mice received oral administrations of 600 mg/kg acetaminophen, which is a dose sufficient to cause death within 24 hours in 50% of the animals thus treated.
At the same time as the acetaminophen administration, one group of animals (group G) were administered glutathione (G) and a second (group YG) were administered yeast containing 10% glutathione (YG); a third group (group PC) were administered propionyl L-carnitine (PC); a fourth group (group AA) were administered a combination of glutamic acid, cysteine, glycine and magnesium (AA); a fifth group (group CC) were administered a first combination according to the invention, called the "complete combination" (CC), consisting of PC+G+AA, while a sixth group (group CYC) were administered a second combination according to the invention, called the "complete yeast combination" (CYC), consisting of PC+YG+AA.
These synergistic effects appear even more marked when the mice are administered a 900 mg/kg acetaminophen dose, which causes the deaths of 100% of the animals. In this case, only administration of the complete yeast combination, CYC, protects more than 50% of the animals treated against death (see Table 2).
The protection against acetaminophen at the dose of 900 mg/kg afforded by the new composition was even more marked when the animals were treated for 7 consecutive days prior to acetaminophen administration with the various components of the combination (see Table 3).

[2] = tested on: CCl4-intoxicated liver cell cultures; test: Carbon tetrachloride (CCl4) intoxication tests on isolated rat liver cells; format: cell-based; settings: for Toxic effects of carbon tetrachloride (in words): CCl4 10 mmol.L^-1
From the text: The cells used in these tests were isolated rat liver cells after perfusion with collagenase according to the method described by Seglen (Seglen F. O., Method Cell. Biol. Chem. 264:4747, 1989). Approximately 4-6×10^8 viable liver cells were collected, calculated by exclusion of non-viable cells by means of trypan blue.
The cells thus isolated were suspended in 25 cm^2 plastic receptacles in the presence of antibiotics and 10% inactivated fetal calf serum. To the cell suspension thus obtained was added CCl4 (10 mmol.L^-1), glutathione (GSH 20 mg.L^-1), propionyl L-carnitine (100 mg.L^-1) or glutathione combined with propionyl L-carnitine. After a 4-h incubation the percentage of dead cells was estimated by release of lactate dehydrogenase, as described by Casini et al. (Casini et al., J. Biol. Chem., 257:6721, 1982).
The cytological examination of the liver cells was done under both the light and electron microscope after fixation in 3% formalin and paraffin for light microscopy and 3% glutaraldehyde and 1% osmium tetroxide for electron microscopy.

[3] = tested on: increase in liver triglycerides induced by CCl4; test: Carbon tetrachloride-induced liver intoxication tests (liver triglycerides); format: in vivo; settings: rats, CCl4 1 ml.kg^-1 i.p. (20% in olive oil), treated three consecutive days before
Procedure: Another indicator of CCl4 toxicity in the liver is provided by the increased hepatic concentration of triglycerides.
The CCl4 intoxication was induced by giving fasting rats an intraperitoneal injection of 1 ml.kg^-1 of a suspension of 20% CCl4 in olive oil. Prior to CCl4 intoxication the rats were treated for three consecutive days with glutathione (G=50 mg/kg), or with propionyl L-carnitine (PC=100 mg/kg), or with yeast containing 10% glutathione (YG=500 mg/kg), or with a combination of amino acids (AA=glutamic acid 50 mg, cysteine 25 mg, glycine 50 mg, magnesium 5 mg). or with the complete combination CC (CC=PC+G+AA), or with the complete yeast combination CYC (CYC=PC+YG+AA). After administration of CCl4, the livers were excised from the decapitated animals and were used to measure the triglyceride concentration according to the method described by Donabedian (Donabedian R. K., Clin. Chem., 20:632, 1974).

[4] = tested on: hypertriglyceridaemia induced in the rat; test: Protection against experimental hypertriglyceridaemia (fructose) in the rat; format: in vivo; settings: fructose 3 g/kg oral; for Hypertriglyceridaemia (blood triglycerides): five hours after, oral treatment three days before and three hours after
From the text: The method used for this test was that described by Carlson (Carlson L. A. V., J. Atheroscl. Res., 8:667, 1968) and modified as described in Atherosclerosis, 16:349, 1972. According to this test oral administration of 3 g/kg of fructose in the rat induces a substantial increase in both liver and serum triglycerides five hours after administration.
The aim of this test was to assess whether the administration of the components of the composition according to the invention, when used alone or in combination, were capable of leading to a reduction in this triglyceride abnormality which is regarded as underlying severe liver dysfunctions as well as atherosclerosis.
To this end, various groups of rats were treated with glutathione (G=50 mg/kg), with propionyl L-carnitine (PC=50 mg/kg), or with yeast containing 10% glutathione (YG=500 mg/kg), or with an amino acid mixture (AA=glutamic acid 50 mg/kg, cysteine 25 mg/kg, glycine 100 mg/kg+magnesium 5 mg/kg), or with a combination of these various components (at the same doses) without yeast (CC) or with yeast (CYC). The treatment was given orally on the three days preceding fructose administration and for three hours after its administration. Five hours after fructose administration all animals were sacrificed and blood samples were used to assay triglycerides according to the method described by Donabedian (Donabedian R. K., Clin. Chem., 20:632, 1974).

[5] = tested on: glycerol-induced kidney failure; test: Activity against glycerol-induced nephropathy; format: in vivo, Male Sprague-Dawley rats; settings: for Protective effect against glycerol-induced kidney lesions (in words): rat; for Urea: rat plasma 24 hours after glycerol injection (10 cc/kg of 50% w/v), treated daily three days before
Procedure: The method used in this test was that described by Young (Young J. H. K., Meth. Find. Exp. Clin. Pharmacol., 13:23, 1991). According to this test, a glycerol injection induces kidney failure and nephropathy in the rat. This method was used to assess the protective effects of the combination according to the invention on the kidney. Male Sprague-Dawley rats were used, which, after being deprived of drinking water for 24 hours, were injected with 10 cc/kg of a 50% w/v solution of glycerol and water. After the injection, the animals thus treated were allowed to drink. After 24 hours, blood samples were taken from the animals and, after centrifuging, the plasma creatinine concentration was assayed (according to the method described by Taussky H. H., Clin. Chem. Acta, 1:210, 1956) and urea by means of reaction with diacetylmonoxime (Henry R. Y., Cannon D. C. Eds., Clinical Chemistry, 2 Ed. Harper & Rowe, London 1974). Propionyl L-carnitine (100 mg/kg), glutathione (50 mg/kg) or yeast containing glutathione (500 mg/kg), amino acids (25 mg/kg each), yeast (500 mg/kg) and a combination of these at the same doses were administered daily on the three days preceding the test.

[6] = tested on: glutathione (GSH) concentration; test: Effects on glutathione (GSH) concentration in young and elderly rats; format: in vivo
Procedure: Since the metabolic and enzymatic activity of glutathione is known to be reduced in elderly rats and this reduction is regarded as one of the causes of ageing, the effect of the administration of the new composition or its individual components on glutathione concentrations in the plasma and liver of young and elderly rats was evaluated.
For this test two different groups of rats were used: young rats (2-3 months) and elderly rats (8-10 months). The glutathione (GSH) concentration was calculated in both groups according to the technique described by Moron (Moron M. S., Biochem. Biophys. Acta, 582:67, 1979) both before the start of the test and after 15 days' daily administration of propionyl L-carnitine (100 mg/kg), glutathione (50 mg/kg), propionyl L-carnitine with glutathione or with yeast containing 10% glutathione (500 mg/kg), amino acids (500 mg/kg) or the combination according to the invention.

[7] = tested on: glutathione-depleted rats; test: Glutathione uptake and concentration in blood of glutathione-depleted (DEM) animals; format: in vivo, Sprague-Dawley male rats; settings: rats depleted with diethylmaleate (DEM) 1 cc/kg i.p.; oral treatment half an hour after; measured 4 h after
Procedure: To this end, the glutathione content in the blood of a group of Sprague-Dawley male rats was reduced by means of the administration of diethylmaleate (DEM)a depletor of glutathione, according to the technique described by Plummer (Plummer J., Chemical depletion of glutathione "in vivo", Methods in Enzymology, 77:50, 1981). DEM was administered intraperitoneally to fasting rats at the dose of 1 cc/kg. Half an hour after injection of diethylmaleate, glutathione alone (50 mg/kg), or yeast containing 10% glutathione (500 mg/kg), or 50 mg/kg of glutathione together with 500 mg of yeast not containing glutathione were administered orally. Another group of rats received glutathione amino acid precursors (glutamic acid 50 mg/kg, glycine 50 mg/kg, cysteine 50 mg/kg, magnesium 10 mg/kg) or the complete combination according to the invention at the same doses as described here above.
After four hours blood samples were taken from the animals thus treated and the plasma glutathione concentration was measured.

[8] = acetaminophen 900 mg/kg, dead/total, Table 2
[9] = acetaminophen 900 mg/kg, dead/total, table at the place of Table 3, printed as a repeat of TABLE 2
[10] = oral acetaminophen 600 mg/kg, substance given at the same time, mortality 24 hours after treatment (dead/total), Table 1
[11] = CCl4-intoxicated liver cell cultures, table at the place of Table 5, printed as a repeat of TABLE 4
[12] = isolated rat liver cells, CCl4 10 mmol.L^-1, 4-h incubation, lactate dehydrogenase release, GSH 20 mg.L^-1, propionyl L-carnitine 100 mg.L^-1, Table 4
[13] = elderly rats (8-10 months), liver, after 15 days' daily administration, Table 9
[14] = elderly rats (8-10 months), liver, before the start of the test, Table 9
[15] = elderly rats, 15 days, table at the place of Table 10, printed as a repeat of TABLE 9
[16] = elderly rats, time 0, table at the place of Table 10, printed as a repeat of TABLE 9
[17] = young rats (2-3 months), liver, after 15 days' daily administration, Table 9
[18] = young rats (2-3 months), liver, before the start of the test, Table 9
[19] = young rats, 15 days, table at the place of Table 10, printed as a repeat of TABLE 9
[20] = young rats, time 0, table at the place of Table 10, printed as a repeat of TABLE 9

Structure (SMILES)	Protection against the mortality induced by acetaminophen (in words) [1]	Mortality [1, 8]	Mortality [1, 9]	Mortality [1, 10]	% dead cells [2, 11]	Toxic effects of carbon tetrachloride (in words) ([2]; isolated rat liver cells)	% dead cells [2, 12]	Triglycerides (liver) [3]	Efficacy on serum triglyceride levels induced by fructose (in words) [4]	Hypertriglyceridaemia (blood triglycerides) [4]	Protective effect against glycerol-induced kidney lesions (in words) [5]	Urea [5]	Glutathione concentration in liver, elderly rats, time 15 days [6, 13]	Glutathione concentration in liver, elderly rats, time 0 [6, 14]	Glutathione concentration in liver, elderly rats, time 15 days [6, 15]	Glutathione concentration in liver, elderly rats, time 0 [6, 16]	Glutathione concentration in liver, young rats, time 15 days [6, 17]	Glutathione concentration in liver, young rats, time 0 [6, 18]	Glutathione concentration in liver, young rats, time 15 days [6, 19]	Glutathione concentration in liver, young rats, time 0 [6, 20]	also measured
CCC(=O)O[C@H](CC(=O)[O-])C[N+](C)(C)C [PC, Propionyl L-carnitine]	no such protection	10/10	10/10	6/10	70 ± 7%	capable of reducing the toxic effects of carbon tetrachloride	70 ± 7%	20.2 ± 1.9 mg/g	small efficacy	185 ± 7.1 mg/100 ml	fairly good protective effect	88.5 ± 11.5 mg/100 ml	9.3 ± 0.46 GSH ng/mg protein	7.9 ± 0.51 GSH ng/mg protein	9.3 ± 0.46 GSH ng/mg protein	7.9 ± 0.51 GSH ng/mg protein	12.90 ± 0.71 GSH ng/mg protein	11.25 ± 0.41 GSH ng/mg protein	12.90 ± 0.71 GSH ng/mg protein	11.25 ± 0.41 GSH ng/mg protein	Glutathione (GSH) concentration in plasma [7]: 0.70 ± 0.54 mg/dL
N[C@@H](CCC(=O)N[C@@H](CS)C(=O)NCC(=O)O)C(=O)O [G, N-(N-L-L-γ-glutamyl-cysteinyl) glycine]	partial protection	7/10	7/10	4/10	55 ± 5%	capable of reducing the toxic effects of carbon tetrachloride	55 ± 5%	18.7 ± 2.1 mg/g	small efficacy	180 ± 5.9 mg/100 ml	fairly good protective effect	79.9 ± 9.9 mg/100 ml	9.90 ± 0.76 GSH ng/mg protein	8.82 ± 0.69 GSH ng/mg protein	9.90 ± 0.76 GSH ng/mg protein	8.82 ± 0.69 GSH ng/mg protein	12.85 ± 0.66 GSH ng/mg protein	12.1 ± 0.36 GSH ng/mg protein	12.85 ± 0.66 GSH ng/mg protein	12.1 ± 0.36 GSH ng/mg protein	Glutathione (GSH) concentration in plasma [7]: 0.95 ± 0.88 mg/dL
